The source of these data is patent US20250100995A1, “CEREBLON BINDING COMPOUNDS, COMPOSITIONS THEREOF, AND METHODS OF TREATMENT THEREWITH” (CELGENE CORPORATION, priority 2021, published 2025).

Structures can show the parent of a compound that is named as a salt.

By DC50 is commonly meant the concentration giving 50% degradation.

For this test, the target named is T1, AR (Homo sapiens, UniProt P10275).
T1 construct: endogenous in cells; host or cells: VCaP cells
T1 sequence (P10275 1-920): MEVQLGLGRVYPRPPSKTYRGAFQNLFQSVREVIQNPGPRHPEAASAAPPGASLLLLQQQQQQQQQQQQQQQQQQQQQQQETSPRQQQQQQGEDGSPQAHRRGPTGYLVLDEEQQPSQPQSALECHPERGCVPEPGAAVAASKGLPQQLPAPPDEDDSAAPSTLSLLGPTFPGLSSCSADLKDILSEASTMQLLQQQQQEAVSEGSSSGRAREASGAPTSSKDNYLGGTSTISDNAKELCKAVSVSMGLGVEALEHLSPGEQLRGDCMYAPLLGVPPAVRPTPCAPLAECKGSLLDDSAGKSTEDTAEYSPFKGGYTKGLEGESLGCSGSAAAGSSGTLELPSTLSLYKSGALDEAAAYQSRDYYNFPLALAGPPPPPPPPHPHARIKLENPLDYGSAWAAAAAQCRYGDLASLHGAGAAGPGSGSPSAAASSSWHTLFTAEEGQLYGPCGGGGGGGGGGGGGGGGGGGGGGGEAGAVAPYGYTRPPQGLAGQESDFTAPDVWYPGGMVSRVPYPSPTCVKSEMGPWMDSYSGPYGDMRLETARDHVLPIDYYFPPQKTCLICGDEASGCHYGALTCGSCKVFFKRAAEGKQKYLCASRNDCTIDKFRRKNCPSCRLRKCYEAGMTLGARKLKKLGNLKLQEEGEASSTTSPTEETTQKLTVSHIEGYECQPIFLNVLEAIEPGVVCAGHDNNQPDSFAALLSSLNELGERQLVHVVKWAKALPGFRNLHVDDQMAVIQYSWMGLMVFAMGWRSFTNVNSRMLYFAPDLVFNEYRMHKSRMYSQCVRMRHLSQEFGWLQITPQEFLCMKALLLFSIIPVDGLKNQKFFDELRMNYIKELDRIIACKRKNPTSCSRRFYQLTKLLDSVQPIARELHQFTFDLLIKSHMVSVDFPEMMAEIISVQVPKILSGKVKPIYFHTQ
Description: VCAP AR Degradation Assay. It is filed as cell-based. The note with it: VCaP cells, 24 h, AR ELISA; for DC50: concentration of compound when AR level = 50% of DMSO control; for Y: lowest measured AR level normalized to DMSO control (AR degradation efficiency). The protocol:
VCAP AR Degradation Assay. Test compounds were pre-dispensed into a Corning CellBind 96-well clear bottom plate (Cat #3300) using an acoustic dispenser to make a 10-point concentration series at 1:3 dilution for each compound. The final top concentration of each compound was 5 μM. DMSO at a final concentration of 0.1% was used as a control. VCaP cells cultured in DMEM with 8% fetal bovine serum (FBS) were seeded at 50K cells per well in a 200 μL volume into the compound plate and incubated at 37° C. in a CO2 incubator for 24 h. The medium was carefully removed from the cells and the plate was placed on ice. One hundred μL of ice-cold 1× cell lysis buffer from Cell Signaling Technologies (Cat #9803) was added to each well of the cells and the plate was incubated at 4° C. on a shaker for 1 h. Fifteen μL of cell lysate was used for AR ELISA detection using a PathScan Total Sandwich AR ELISA kit (Cell Signaling Technology, Cat #12580). AR levels in compound-treated wells were normalized to that of DMSO control and expressed as percent of control (PoC) (y). A Four Parameter Logistic Model (Sigmoidal Dose-Response Model) was used to determine the compound's DC50, and EC50, using the following equation: […]
The lowest measured AR level normalized to DMSO control in response to compound treatment, termed Y value, was used to characterize the compound-mediated AR degradation efficiency.
Background: In an ELISA, binding on a coated surface is turned into a signal by an enzyme label.

Take `C[C@@H]1CN(CCCO[C@H]2CC[C@H](N3C(=S)N(c4ccc(C#N)c(C(F)(F)F)c4)C(=O)C3(C)C)CC2)C[C@H](C)N1CC(=O)Nc1cc(C2CCC(=O)NC2=O)ccn1` (stereo partly drawn) [Cmpd 13, 2-((2R,6S)-4-(3-((trans-4-(3-(4-Cyano-3-(trifluoromethyl)phenyl)-5,5-dimethyl-4-oxo-2-thioxoimidazolidin-1-yl)cyclohexyl)oxy)propyl)-2,6-dimethylpiperazin-1-yl)-N-(4-(2,6-dioxopiperidin-3-yl)pyridin-2-yl)acetamide hydrochloride]: the DC50 is not above 5 nM and the Y result is reported as “*** (40%<Y<80%)”.

As to `CC1(C)C(=O)N(c2ccc(C#N)c(C(F)(F)F)c2)C(=S)N1[C@H]1CC[C@H](OCCCN2CCN(CC(=O)Nc3cc(C4CCC(=O)NC4=O)ccn3)[C@@H](C(F)(F)F)C2)CC1` (stereo partly drawn) [Cmpd 24, 2-((R)-4-(3-(((trans)-4-(3-(4-Cyano-3-(trifluoromethyl)phenyl)-5,5-dimethyl-4-oxo-2-thioxoimidazolidin-1-yl)cyclohexyl)oxy)propyl)-2-(trifluoromethyl)piperazin-1-yl)-N-(4-(2,6-dioxopiperidin-3-yl)pyridin-2-yl)acetamide], the DC50 is not above 5 nM and the Y entry is “* (0<Y≤20%)”.

`C[C@@H]1CN(CCCC[C@H]2CC[C@H](N3C(=S)N(c4ccc(C#N)c(C(F)(F)F)c4)C(=O)C3(C)C)CC2)C[C@H](C)N1CC(=O)Nc1ccc(C2CCC(=O)NC2=O)cn1` (stereo partly drawn) [Cmpd 19, 2-((2R,6S)-4-(4-((trans)-4-(3-(4-Cyano-3-(trifluoromethyl)phenyl)-5,5-dimethyl-4-oxo-2-thioxoimidazolidin-1-yl)cyclohexyl)butyl)-2,6-dimethylpiperazin-1-yl)-N-(5-(2,6-dioxopiperidin-3-yl)pyridin-2-yl)acetamide]: the DC50 is not above 5 nM and the Y entry was “* (0<Y≤20%)”.

As to `C[C@@H]1C[C@H](OCC[C@H]2CC[C@H](N3C(=S)N(c4cnc(C#N)c(C(F)(F)F)c4)C(=O)C3(C)C)CC2)C[C@H](C)N1CC(=O)Nc1cc(C2CCC(=O)NC2=O)ccn1` (stereo partly drawn) [Cmpd 30, 2-((2R,4r,6S)-4-(2-((trans)-4-(3-(6-Cyano-5-(trifluoromethyl)pyridin-3-yl)-5,5-dimethyl-4-oxo-2-thioxoimidazolidin-1-yl)cyclohexyl)ethoxy)-2,6-dimethylpiperidin-1-yl)-N-(4-(2,6-dioxopiperidin-3-yl)pyridin-2-yl)acetamide], the DC50 was in the range of 5 to 50 nM and the Y entry is “* (0<Y≤20%)”.
